Test results as given in PubChem BioAssay (NCI).
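Dose response: 5 concentrations. Exposure: 48 h. Format: 96-well plates. Endpoint: linear interpolation; highest concentration if not reached. GI50: concentration for 50% inhibition of growth. TGI is the concentration that stops growth completely.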

Columns and labels:
Test in all cases: inhibition of tumour cell growth, NCI panel, 48 h
[1] = tested on: CCRF-CEM leukemia
[2] = tested on: HCT-116 colon
[3] = tested on: MDA-MB-435
[4] = tested on: NCI-H23 lung
[5] = tested on: NCI-H522 lung
[6] = tested on: SK-MEL-28 melanoma
[7] = tested on: SK-OV-3 ovarian
[8] = tested on: SNB-19 CNS
[9] = tested on: SW-620 colon
[10] = tested on: UO-31 renal

Row | Structure (SMILES) | GI50 [1] | TGI [1] | GI50 [2] | TGI [2] | GI50 [3] | TGI [3] | GI50 [4] | TGI [4] | GI50 [5] | TGI [5] | GI50 [6] | TGI [6] | GI50 [7] | TGI [7] | GI50 [8] | TGI [8] | GI50 [9] | TGI [9] | GI50 [10] | TGI [10]
1 | CSC1=CC(=O)c2ccccc2C1=O | 0.296 µM | 1.44 µM | 1.52 µM | 2.92 µM | 3.02 µM | 9.73 µM | 3.45 µM | 17.5 µM | 2.02 µM | 4.16 µM | 11.1 µM | 23.8 µM | 18.2 µM | 32.1 µM | 13.8 µM | 29.4 µM | 2.49 µM | 8.13 µM | 1.4 µM | 2.84 µM
2 | CS(=O)(=O)Nc1cc(-c2ccc3ncc(C#N)c(Nc4ccc(F)c(Cl)c4)c3c2)cnc1Cl | 0.0911 µM | > 31 µM | 0.0486 µM | – | 0.22 µM | 1.85 µM | 0.108 µM | 3.91 µM | 0.113 µM | 1.46 µM | 0.133 µM | 1.47 µM | 0.194 µM | 0.731 µM | 0.212 µM | 1.64 µM | 0.107 µM | 4.31 µM | 0.125 µM | 1.03 µM
3 | COc1ccc(-c2nc3sccn3c2-c2ccnc(NCCNS(=O)(=O)c3ccc(C(F)(F)F)cc3)n2)cc1 | 0.37 µM | > 100 µM | 0.729 µM | 4.61 µM | 1.44 µM | 5.88 µM | 3.56 µM | 62.3 µM | 2.81 µM | 17 µM | 3.68 µM | 55.5 µM | 4.44 µM | > 100 µM | 3.77 µM | > 100 µM | 4.24 µM | 38.9 µM | 1.09 µM | > 100 µM
4 | CCOC(=O)c1c(C)n([O-])c2cc(F)c(F)cc2[n+]1=O | 1.1 µM | 7.84 µM | 0.351 µM | 1.28 µM | 1.56 µM | 3.11 µM | 1.88 µM | 3.78 µM | 1.04 µM | 2.72 µM | 1.24 µM | 2.58 µM | 1.93 µM | 3.48 µM | 1.53 µM | 2.86 µM | 0.428 µM | 1.57 µM | 1.44 µM | 2.85 µM
5 | CCOC(=O)c1c(-c2ccccc2)n2c(=O)cc(C)c3c(O)c(O)cc1c32 | 1.59 µM | 13.9 µM | 2.8 µM | 11.9 µM | 15.7 µM | > 100 µM | 6.06 µM | 37.5 µM | 3.25 µM | 11.6 µM | 12.7 µM | 29.3 µM | 16 µM | > 100 µM | 11.4 µM | 35.7 µM | 4.74 µM | 18.5 µM | 8.39 µM | 38.7 µM
6 | CC1(C)N=C(N)N=C(N)N1c1ccc(OCC(=O)Nc2ccc(S(=O)(=O)F)cc2Cl)c(Cl)c1 | 0.277 µM | > 100 µM | 2.7 µM | > 100 µM | 3.36 µM | > 100 µM | 4.37 µM | > 100 µM | 7.09 µM | > 100 µM | 37.6 µM | > 100 µM | > 100 µM | > 100 µM | > 100 µM | > 100 µM | 1.08 µM | > 100 µM | 44.7 µM | > 100 µM
7 | Nc1nc2ccc(CNc3ccc(C(=O)NC(CC(=O)O)C(=O)O)cc3)cc2c(=O)[nH]1 (centres undefined) | 4.86 µM | > 100 µM | 0.478 µM | > 100 µM | 0.514 µM | > 100 µM | 5.83 µM | > 100 µM | 14.4 µM | > 100 µM | > 96 µM | > 100 µM | > 29.1 µM | > 100 µM | > 82.5 µM | > 100 µM | 0.525 µM | > 100 µM | 9.74 µM | > 100 µM
8 | CCc1ccc(Oc2c(-c3ccc(OCCc4cccc(C(F)(F)F)c4)cc3O)n[nH]c2C(F)(F)F)cc1 | 2.55 µM | 9.18 µM | 1.53 µM | 5.47 µM | 3.71 µM | 10.3 µM | 1.53 µM | 5.89 µM | 1.88 µM | 5.77 µM | 5.39 µM | 11.4 µM | 6.57 µM | 12.9 µM | 2.69 µM | 9.03 µM | 1.96 µM | 7.57 µM | 2.07 µM | 8.08 µM
9 | O=S(=O)(NCCNc1nccc(-c2c(-c3ccc(F)cc3)nc3sccn23)n1)c1ccc(O)cc1 | 2 µM | 29.8 µM | 1.43 µM | 22.1 µM | 1.07 µM | 14.8 µM | 4.96 µM | 28.1 µM | 3.51 µM | 19.2 µM | 4.4 µM | 37.8 µM | 9.17 µM | 73 µM | 12.5 µM | > 100 µM | 4.47 µM | 41.8 µM | 2.39 µM | 16.7 µM
10 | Nc1c(C(=O)Nc2cccc(Cl)c2)sc2nc3c(cc12)C(O)CCC3 (centres undefined) | 0.31 µM | 17.3 µM | 0.44 µM | 19.1 µM | 0.121 µM | 0.408 µM | 0.711 µM | > 100 µM | 0.434 µM | 23.6 µM | 3.02 µM | 59 µM | 0.534 µM | 22.2 µM | 4.35 µM | 99.4 µM | 0.48 µM | > 89.3 µM | 1.1 µM | 26.8 µM
11 | CC(=O)Oc1ccc(C2OC(c3ccc4ccccc4c3OC(C)=O)=NN2C(C)=O)c(OC(C)=O)c1 (centres undefined) | 0.32 µM | > 100 µM | 0.328 µM | > 40.2 µM | 0.638 µM | > 65 µM | 1.28 µM | 97.4 µM | 0.369 µM | 6.22 µM | 0.559 µM | > 53.9 µM | 0.675 µM | > 52.3 µM | 0.56 µM | > 100 µM | 0.455 µM | > 43.3 µM | 0.146 µM | 3.14 µM
12 | COc1cc2c(Nc3ccc(-c4ccc(N)cc4)cc3)ncnc2c(OC)c1OC | 6.09 µM | > 100 µM | 3.79 µM | 55.3 µM | 0.752 µM | 47.1 µM | 19.5 µM | > 100 µM | 3.15 µM | > 80.9 µM | 11.9 µM | > 100 µM | 46.5 µM | > 100 µM | 7.76 µM | > 100 µM | 0.733 µM | > 100 µM | 2.07 µM | > 76.5 µM
13 | CC(C)c1cnc(-c2cc(Cl)ccc2F)cc1Nc1ccncc1C(=O)NC(CO)CO | 11.6 µM | 54.2 µM | 12.5 µM | 28.5 µM | 16.1 µM | 30.4 µM | 13.9 µM | 33.5 µM | 13 µM | 30.4 µM | 16.9 µM | 32.8 µM | 19.8 µM | 55.5 µM | 15.6 µM | 54 µM | 19.6 µM | 39.5 µM | 2.87 µM | 21.9 µM
14 | COc1cccc2nc(Nc3cccc(NC(=O)c4ccc(N5CCN(C)CC5)c(C(F)(F)F)c4)c3)ccc12 | 1.4 µM | 50 µM | 0.869 µM | 1.89 µM | 0.878 µM | 1.73 µM | 2.93 µM | 10.6 µM | 1.04 µM | 2 µM | 0.896 µM | 1.64 µM | 1.73 µM | 6.11 µM | 1.11 µM | 2.29 µM | 0.968 µM | 2.08 µM | 0.734 µM | 1.49 µM
15 | Cc1cc(O)ccc1C1(c2ccc(O)cc2C)OC(=O)c2ccccc21 | 24.4 µM | 67.7 µM | 18.6 µM | 33.7 µM | 15.6 µM | 29.7 µM | 16.6 µM | 33.4 µM | 18.5 µM | 35 µM | 17.3 µM | 35.4 µM | 17.7 µM | 32.8 µM | 18.7 µM | 35.2 µM | 16.9 µM | 35.8 µM | 18.1 µM | 36.7 µM
16 | CO/N=C(/C)COc1ccc2c(c1)oc(=O)c1cc(OC)ccc12 | > 100 µM | > 100 µM | > 100 µM | > 100 µM | > 100 µM | > 100 µM | > 100 µM | > 100 µM | > 100 µM | > 100 µM | > 100 µM | > 100 µM | > 100 µM | > 100 µM | > 100 µM | > 100 µM | > 100 µM | > 100 µM | 73.8 µM | > 100 µM
17 | c1cc[n+](Cc2c3ccccc3cc3c2ccc2ccccc23)cc1 | 4.73 µM | 24 µM | 4.77 µM | 17.1 µM | 3.29 µM | 12.2 µM | 1.71 µM | 11.6 µM | 1.68 µM | 5.31 µM | 2.11 µM | 5.5 µM | 13.6 µM | 59.1 µM | 1.18 µM | 7.85 µM | 6.16 µM | 21.9 µM | 27.5 µM | > 100 µM
18 | COc1ccc(OC)c(C2=C(c3cn(C)c4ccccc34)C(=O)NC2=O)c1 | > 25 µM | > 25 µM | > 25 µM | > 25 µM | 8.6 µM | > 25 µM | > 25 µM | > 25 µM | > 25 µM | > 25 µM | > 25 µM | > 25 µM | > 25 µM | > 25 µM | > 25 µM | > 25 µM | 20.8 µM | > 25 µM | > 25 µM | > 25 µM
